This assay deals with Aβ42 secretion. Kind of assay: Cellular γ-secretase assay (inhibition of Aβ42 secretion). In kind it is cell-based. Conditions: human neuroglioma H4 cells overexpressing human APP, 22 hours incubation. The procedure: Cellular γ-Secretase Assay
The compounds were investigated in accordance with the test given hereinafter.
Human neuroglioma H4 cells overexpressing human APP were plated at 30,000 cells/well/200 μL in 96-well plates in IMDM media containing 10% FCS, […] Hygromycin B and incubated for 2 hours at 37° C., 5% CO2 prior to adding test compounds.
Compounds for testing were dissolved in 100% Me2SO yielding in a 10 mM stock solution. Typically 12 μL of these solutions were further diluted in 1000 μL of IMDM media (w/o FCS). Subsequent 1:1 dilutions gave a ten point dose response curve. 100 μL of each dilution was added to the cells in 96-well plates. Appropriate controls using vehicle only and reference compound were applied to this assay. The final concentration of Me2SO was 0.4%.
After incubation for 22 hours at 37° C., 5% CO2, 50 μL supernatant was transferred into round-bottom 96-well polypropylene plates for detection of Aβ42. 50 μL assay buffer (50 mM Tris/Cl, pH 7.4, 60 mM NaCl, 0.5% BSA, 1% TWEEN 20) was added to the wells followed by the addition of 100 μL of detection antibody (ruthenylated BAP15 0.0625 μg/mL in assay buffer). 50 μL of a premix of capture antibody (biotinylated 6E10 antibody, 1 μg/mL) and Streptavidin-coated magnetic beads (Dynal M-280, 0.125 mg/mL) were preincubated for 1 hour at room temperature before adding the assay plates. Assay plates were incubated on a shaker for 3 hours at room temperature and finally read in the Bioveris M8 Analyser according to the manufacturer's instructions (Bioveris).
IC50 values for inhibition of Aβ42 secretion were calculated by nonlinear regression fit analysis using XLfit 4.0 software (IDBS).

By EC50 is commonly meant the concentration giving half of the maximal effect.

In turn, `CC(C)N1CCC(c2ccc3[nH]c(C(=O)Nc4ccc(F)cc4F)cc3c2)CC1` [Example 29, 5-(1-Isopropyl-piperidin-4-yl)-1H-indole-2-carboxylic acid (2,4-difluoro-phenyl)-amide] yielded an EC50 (Homo sapiens, 22 h) of 12600 nM.
On the same count and under the same terms, for `N#Cc1ccc(N2CCC(c3ccc4[nH]c(C(=O)Nc5cncc(F)c5)cc4c3)C2)nn1` (centres unmarked) [Example 83, 5-(1-(6-Cyanopyridazin-3-yl)pyrrolidin-3-yl)-N-(5-fluoropyridin-3-yl)-1H-indole-2-carboxamide] the value was 3340 nM; for `O=C(Nc1cc(F)cc(F)c1)c1cc2cc(C3CCCN(C(=O)C4CC4)C3)ccc2[nH]1` (centres unmarked) [Example 54, 5-(1-Cyclopropanecarbonyl-piperidin-3-yl)-1H-indole-2-carboxylic acid (3,5-difluoro-phenyl)-amide], 403 nM; for `CC(c1ccc2[nH]c(C(=O)Nc3cc(F)cc(F)c3)cc2c1)N1CCCC1=O` (centres unmarked) [Example 88, 5-[1-(2-Oxo-pyrrolidin-1-yl)-ethyl]-1H-indole-2-carboxylic acid (3,5-difluoro-phenyl)-amide], 321 nM.
On to `N#CCN1CCC(c2ccc3[nH]c(C(=O)Nc4cccc(F)c4)cc3c2)C1` (centres unmarked) [Example 16, 5-(1-(Cyanomethyl)pyrrolidin-3-yl)-N-(3-fluorophenyl)-1H-indole-2-carboxamide], for which, for the setting “Homo sapiens, 22 h”, the EC50 was 373 nM.
Still for that read-out and setting: for `O=C(Nc1cccc(F)c1)c1cc2cc([C@@H]3CCCN(C4CC4)C3)ccc2[nH]1` [Example 117, (S)-5-(1-Cyclopropylpiperidin-3-yl)-N-(3-fluorophenyl)-1H-indole-2-carboxamide] the value was 4360 nM; for `COC(=O)N1CCC(c2ccc3[nH]c(C(=O)Nc4ccc(F)cc4)cc3c2)CC1` [Example 41, 4-[2-(4-Fluoro-phenylcarbamoyl)-1H-indol-5-yl]-piperidine-1-carboxylic acid methyl ester], 1910 nM; for `O=C(Nc1cncc(F)c1)c1cc2cc(C3CCN(Cc4ccccc4)C3)ccc2[nH]1` (centres unmarked) [Example 74, 5-(1-Benzyl-pyrrolidin-3-yl)-1H-indole-2-carboxylic acid (5-fluoro-pyridin-3-yl)-amide], 1860 nM.
For the setting “Homo sapiens, 22 h”, `O=C(Nc1cncc(F)c1)c1cc2cc(C3CCN(S(=O)(=O)c4ccc(F)cc4)C3)ccc2[nH]1` (centres unmarked) [Example 84, 5-(1-(4-Fluorophenylsulfonyl)pyrrolidin-3-yl)-N-(5-fluoropyridin-3-yl)-1H-indole-2-carboxamide] registered an EC50 of 4860 nM.
Where the note is “Homo sapiens, 22 h”, `O=C(Nc1cccc(F)c1)c1cc2cc(C3CCCNC3)ccc2[nH]1` (centres unmarked) [Example 69, N-(3-Fluorophenyl)-5-(piperidin-3-yl)-1H-indole-2-carboxamide] showed an EC50 of 662 nM.
`O=C(Nc1cc(F)cc(F)c1)c1cc2cc(C3CCCNC3)ccc2[nH]1` (centres unmarked) [Example 62, 5-Piperidin-3-yl-1H-indole-2-carboxylic acid (3,5-difluoro-phenyl)-amide] had an EC50 (Homo sapiens, 22 h) of 354 nM.
Same read-out and setting: then `CCC1(c2ccc3[nH]c(C(=O)Nc4cc(F)cc(F)c4)cc3c2)CCC(=O)NC1=O` (centres unmarked) [Example 19, 5-(3-Ethyl-2,6-dioxo-piperidin-3-yl)-1H-indole-2-carboxylic acid (3,5-difluoro-phenyl)-amide], with 2630 nM.
The same measure, in the same setting: for `COc1ccc(NC(=O)c2cc3cc(C4CCN(C(C)C)CC4)ccc3[nH]2)cc1` [Example 26, 5-(1-Isopropyl-piperidin-4-yl)-1H-indole-2-carboxylic acid (4-methoxy-phenyl)-amide] the value was 10900 nM.
`Cc1cccc(NC(=O)c2cc3cc(C4CCCN(C(C)C)C4)ccc3[nH]2)c1` (centres unmarked) [Example 33, 5-(1-Isopropyl-piperidin-3-yl)-1H-indole-2-carboxylic acid m-tolylamide]: the EC50 (Homo sapiens, 22 h) is 1580 nM.
`Cc1cc(F)cc(NC(=O)c2cc3cc(C4CCCN(C(C)C)C4)ccc3[nH]2)c1` (centres unmarked) [Example 34, N-(3-Fluoro-5-methylphenyl)-5-(1-isopropylpiperidin-3-yl)-1H-indole-2-carboxamide] returned an EC50 (Homo sapiens, 22 h) of 926 nM.
The compound `COCC(=O)N1CCCC(c2ccc3[nH]c(C(=O)Nc4cc(F)cc(F)c4)cc3c2)C1` (centres unmarked) [Example 57, 5-[1-(2-Methoxy-acetyl)-piperidin-3-yl]-1H-indole-2-carboxylic acid (3,5-difluoro-phenyl)-amide] came in with an EC50 (Homo sapiens, 22 h) of 668 nM.
The same measure, in the same setting: then `C[C@H](CN1CCCC1)c1ccc2[nH]c(C(=O)Nc3cccc(F)c3)cc2c1` [Example 118], with 753 nM.
On the same count and under the same terms, then `CC(C)N1CCCC(c2ccc3[nH]c(C(=O)Nc4cccc(F)c4)cc3c2)C1` (centres unmarked) [Example 46, 5-(1-Isopropyl-piperidin-3-yl)-1H-indole-2-carboxylic acid (3-fluoro-phenyl)-amide], with 588 nM; and `CCN1CCCC(c2ccc3[nH]c(C(=O)Nc4cccc(F)c4)cc3c2)C1` (centres unmarked) [Example 70, 5-(1-Ethylpiperidin-3-yl)-N-(3-fluorophenyl)-1H-indole-2-carboxamide], with 810 nM; and `CC(CN1CCCC1)c1ccc2[nH]c(C(=O)Nc3cccc(F)c3)cc2c1` (centres unmarked) [Example 99, N-(3-Fluorophenyl)-5-(1-(pyrrolidin-1-yl)propan-2-yl)-1H-indole-2-carboxamide], with 1240 nM.
Same read-out and setting: for `CC(C)C1(c2ccc3[nH]c(C(=O)Nc4ccc(F)c(F)c4)cc3c2)CNC(=O)C1` (centres unmarked) [Example 18, 5-(3-Isopropyl-5-oxo-pyrrolidin-3-yl)-1H-indole-2-carboxylic acid (3,4-difluoro-phenyl)-amide] the value was 2320 nM; for `CC(=O)N1CCC[C@@H](c2ccc3[nH]c(C(=O)Nc4cc(F)cc(F)c4)cc3c2)C1` [Example 113, 5-((S)-1-Acetyl-piperidin-3-yl)-1H-indole-2-carboxylic acid (3,5-difluoro-phenyl)-amide], 1790 nM; for `O=C(Nc1cc(F)cc(F)c1)c1cc2cc(/C=C/N3C(=O)[C@@H]4CC[C@H]3C4)ccc2[nH]1` [Example 101, 5-[(E)-2-((1S,4R)-3-Oxo-2-aza-bicyclo[2.2.1]hept-2-yl)-vinyl]-1H-indole-2-carboxylic acid (3,5-difluoro-phenyl)-amide], 3830 nM.
Compound `CC(C)N1CCC(c2ccc3[nH]c(C(=O)Nc4ccc(F)c(F)c4)cc3c2)CC1` [Example 28, 5-(1-Isopropyl-piperidin-4-yl)-1H-indole-2-carboxylic acid (3,4-difluoro-phenyl)-amide] displayed an EC50 (Homo sapiens, 22 h) of 852 nM.
Consider `O=C(Nc1cccc(F)c1)c1cc2cc(C3CCNC3)ccc2[nH]1` (centres unmarked) [Example 8, N-(3-Fluorophenyl)-5-(pyrrolidin-3-yl)-1H-indole-2-carboxamide], for which the response (Homo sapiens, 22 h) was half-maximal at 627 nM (EC50).
On the same count and under the same terms, then `C[C@@H](CN1CCCC1)c1ccc2[nH]c(C(=O)Nc3cccc(F)c3)cc2c1` [Example 119], with 1730 nM; and `O=C(Nc1cccc(F)c1)c1cc2cc([C@H]3CCCN(C4CC4)C3)ccc2[nH]1` [Example 116, (R)-5-(1-Cyclopropylpiperidin-3-yl)-N-(3-fluorophenyl)-1H-indole-2-carboxamide], with 545 nM; and `COc1cccc(NC(=O)c2cc3cc(C4CCN(C(C)C)CC4)ccc3[nH]2)c1` [Example 25, 5-(1-Isopropyl-piperidin-4-yl)-1H-indole-2-carboxylic acid (3-methoxy-phenyl)-amide], with 2680 nM.
The same measure, in the same setting: then `O=C(Nc1cccc(F)c1)c1cc2cc(C3CCCN(CC4CCCO4)C3)ccc2[nH]1` (centres unmarked) [Example 68, N-(3-Fluorophenyl)-5-(1-((tetrahydrofuran-2-yl)methyl)piperidin-3-yl)-1H-indole-2-carboxamide], with 777 nM.
On the same count and under the same terms, for `CC(c1ccc2[nH]c(C(=O)Nc3cc(F)cc(F)c3)cc2c1)N1CCCC1` (centres unmarked) [Example 90, 5-(1-Pyrrolidin-1-yl-ethyl)-1H-indole-2-carboxylic acid (3,5-difluoro-phenyl)-amide] the value was 877 nM; for `CC(C)N1CCC(c2ccc3[nH]c(C(=O)Nc4cccc(F)c4)cc3c2)CC1` [Example 20, 5-(1-Isopropyl-piperidin-4-yl)-1H-indole-2-carboxylic acid (3-fluoro-phenyl)-amide], 832 nM; for `O=C(Nc1cc(F)cc(F)c1)c1cc2cc(C3CCN(Cc4ccccc4)C3)ccc2[nH]1` (centres unmarked) [Example 1, 5-(1-Benzylpyrrolidin-3-yl)-N-(3,5-difluorophenyl)-1H-indole-2-carboxamide], 795 nM.
The compound `CN1CCC(c2ccc3[nH]c(C(=O)Nc4cc(F)cc(F)c4)cc3c2)C1` (centres unmarked) [Example 2, 5-(1-Methyl-pyrrolidin-3-yl)-1H-indole-2-carboxylic acid (3,5-difluoro-phenyl)-amide] displayed an EC50 of 178 nM.
Compound `CC(C)N1CCN(c2ccc3[nH]c(C(=O)Nc4ccc(F)c(F)c4)cc3c2)CC1` [Example 63, 5-(4-Isopropyl-piperazin-1-yl)-1H-indole-2-carboxylic acid (3,4-difluoro-phenyl)-amide] gave an EC50 (Homo sapiens, 22 h) of 614 nM. This counts as sub-micromolar.
Still for that read-out and setting: for `O=C(Nc1ccc(F)c(F)c1)c1cc2cc(C3CCCOC3)ccc2[nH]1` (centres unmarked) [Example 86, 5-(Tetrahydro-pyran-3-yl)-1H-indole-2-carboxylic acid (3,4-difluoro-phenyl)-amide] the value was 990 nM.
